According to paper PMC8258795 (Computational and Structural Biotechnology Journal, 2021):

How the values were obtained:
[1] = cited from earlier work; for BBB Permeable: prediction confirmed or corrected by literature
LRRK2 G2019S [2] = biological target: T1, LRRK2 G2019S (Homo sapiens, UniProt Q5S007, G2019S); experiment: KINOMEscan competition binding assay (Eurofins DiscoverX); settings: competition with active-site directed ligand, duplicates
Description: (§1) The six hit compounds from the virtual screening were ordered from Selleckchem (Houston, Texas, USA). […] Stocks of all compounds were shipped to Reaction Biology Corporation (Malvern, Pennsylvania, USA) and Eurofins DiscoverX (Fremont, California, USA) for IC50 and Kd determination, respectively. The IC50 and Kd assays were performed as service by the companies.
The compounds were tested at 11 different concentrations in duplicates with 3-fold serial dilution starting at 100 μM. Compounds were dissolved and diluted in 100% DMSO. […] Shortly, streptavidin-coated magnetic beads were treated with the biotinylated competitive ligand for 30 min at room temperature. The liganded beads were blocked with excess biotin and washed with blocking buffer (SeaBlock (Pierce), 1% BSA, 0.05% Tween 20, 1 mM DTT) to remove unbound ligand and to reduce non-specific binding. […] The kinase concentration in the eluates was measured by qPCR.
(§2) A specific challenge to our drug repositioning approach was the use of a homolog structure as template instead of a LRRK2 structure. To validate the virtual screening results, all six top candidates were tested for in vitro inhibition of LRRK2 kinase activity.

LRRK2 G2019S [3] = biological target: T1, LRRK2 G2019S; experiment: LRRK2 G2019S kinase activity inhibition, 33P-ATP P81 filter-binding (Reaction Biology); type: biochemical
Description: as §1
Compounds were dissolved and diluted in 100% DMSO. […] Compounds were delivered into the reaction mixture. After a 20 min incubation, ^33P-ATP was added to a final concentration of 10 μM to initiate the reaction. Reactions were carried out for 2 h at room temperature. The final enzyme and substrate concentrations were 20 nM and 20 μM, respectively. Kinase activity was detected by the P81 filter-binding method. The whole procedure is also described in [40].
as §2

[4] = peptide substrate, 10 μM ATP, duplicates

| Kd (LRRK2 G2019S [2]) [µM] | IC50 (LRRK2 G2019S [3]; [4]) [µM] | IC50 (LRRK2 G2019S [3]; values in text) [µM] | Structure (SMILES) | BBB Permeable [1] | brain penetration ([1]; statement in discussion) |
| --- | --- | --- | --- | --- | --- |
| > 100 | > 100 |  | Fc1ccc([C@@H]2CCNC[C@H]2COc2ccc3c(c2)OCO3)cc1 [Paroxetine] | supported by literature and Yes |  |
|  |  |  | C[C@H]1Oc2cc(cnc2N)-c2c(nn(C)c2C#N)CN(C)C(=O)c2ccc(F)cc21 [Lorlatinib] |  | brain penetrant |
|  |  |  | CCN(CC)CCNC(=O)c1c(C)[nH]c(/C=C2\C(=O)Nc3ccc(F)cc32)c1C [Sunitinib] | supported by literature and Yes |  |
|  |  |  | C[C@@H](Oc1cc(-c2cnn(C3CCNCC3)c2)cnc1N)c1c(Cl)ccc(F)c1Cl [Crizotinib] | poor and No |  |
| > 100 | > 100 |  | O=C1Nc2ccc(Cl)cc2[C@@](C#CC2CC2)(C(F)(F)F)O1 [Efavirenz] | supported by literature and Yes |  |
| 0.79 | < 0.0051 |  | O=C1Nc2ccc(I)cc2/C1=C/c1cc(Br)c(O)c(Br)c1 [GW 5074] |  |  |
| > 100 |  | 47 | CCCc1nc(C)c2c(=O)[nH]c(-c3cc(S(=O)(=O)N4CCN(CC)CC4)ccc3OCC)nn12 [Vardenafil] |  |  |
